Assay results from article PMC10125213 (Journal of Molecular Biology, 2023).

Experiments:
Type in all cases: binding, SARS-CoV-2
BA.4/5 S protein = BA.4/5 S protein (Severe acute respiratory syndrome coronavirus 2, UniProt P0DTC2, A27S/D405N/D614G/D796Y/DEL24-26/DEL69-70/E484A/F486V/G142D/G339D/H655Y/K417N/L452R/N440K/N501Y/N679K/N764K/N969K/P681H/Q498R/Q954H/R408S/S371F/S373P/S375F/S477N/T19I/T376A/T478K/V213G/Y505H)
BA.2 S protein = BA.2 S protein (Severe acute respiratory syndrome coronavirus 2, UniProt P0DTC2, A27S/D405N/D614G/D796Y/DEL24-26/E484A/G142D/G339D/H655Y/K417N/N440K/N501Y/N679K/N764K/N969K/P681H/Q493R/Q498R/Q954H/R408S/S371F/S373P/S375F/S477N/T19I/T376A/T478K/V213G/Y505H)
Omicron (BA.1) S protein = Omicron (BA.1) S protein (Severe acute respiratory syndrome coronavirus 2, UniProt P0DTC2, A67V/D614G/D796Y/DEL143-145/DEL211-211/DEL69-70/E484A/G142D/G339D/G446S/G496S/H655Y/INS214EPE/K417N/L212I/L981F/N440K/N501Y/N679K/N764K/N856K/N969K/P681H/Q493K/Q498R/Q954H/S371L/S373P/S375F/S477N/T478K/T547K/T95I/Y505H)
[1] = system: RBM mutant RBD protein derived from BA.2
Omicron RBD = Omicron RBD (Severe acute respiratory syndrome coronavirus 2, UniProt P0DTC2, E484A/G339D/G446S/G496S/K417N/N440K/N501Y/Q493K/Q498R/S371L/S373P/S375F/S477N/T478K/Y505H)
[2] = target: RBM mutant RBD protein derived from BA.4/5 (Severe acute respiratory syndrome coronavirus 2, UniProt P0DTC2, E484A/F486V/L452R/N440K/N501Y/Q498R/S477N/T478K/Y505H)

Structure (SMILES)	IC50 (BA.4/5 S protein) [mM]	IC50 (BA.2 S protein) [mM]	IC50 (Omicron (BA.1) S protein) [mM]	sensitivity to TCEP compared to WT protein [1]	inhibition of activity of Omicron RBD (Omicron RBD) [%]	sensitivity to TCEP compared to WT protein [2]
N[C@@H](CCC(=O)N[C@@H](CS)C(=O)NCC(=O)O)C(=O)O [GSH, reduced glutathione]	< 10	< 10	< 10	–	–	–
O=C(O)CCP(CCC(=O)O)CCC(=O)O [TCEP, tris-(2-carboxyethyl)phosphine]	–	–	–	enhanced sensitivities	> 80	enhanced sensitivities
